The results in this text go back to US20200315168A1, “Aroma-Loaded Microcapsules with Antibacterial Activity for Eco-friendly Applications” (The American University in Cairo, priority 2017, published 2020).

The subject of test [1] is Escherichia coli (ATCC 10536). As to the kind of experiment: Agar diffusion method (inhibition zone). The class given is cell-based. More on the design: key to Inhibition zone after 4 days of incubation (symbol): — (*): After 4 days of incubation, the bacteria grown up in the inhibition zone initially formed. The following applies: E. coli; for Average diameters of inhibition zones, after 24 hours of incubation: 100 μl in 6 mm well, 37° C.; for Inhibition zone after 4 days of incubation (symbol): free oils. The procedure: (§1) This assay was conducted with the limonene and vanillin microcapsules suspensions after applying the washing procedure described previously. Moreover, the free active agents were also tested separately (not incorporated in microcapsules). Staphylococcus aureus (ATCC 19213) and Escherichia coli (ATCC 10536) were used as representatives for Gram positive and Gram negative bacteria, respectively. The bacterial inoculums were prepared, under aseptic conditions, by transferring 4 isolated colonies of each type to individual test tubes containing nutrient broth and then incubated at 37° C. for 24 hours. The inoculums were then diluted by sterilized Ringer solution to a concentration of 0.5 McFarland turbidity (concentration of 1.5-3.0×10^8 CFU/ml). The concentration of the bacteria dilutions, also ascertained through UV spectrophotometry at 625 nm, was 0.0938 for the S. aureus, and 0.0940 for the E. coli. The bacterial solutions were then inoculated on the surface of Mueller Hinton Agar plates, using sterilized cotton swabs, and thereafter allowed to dry. Then, a well of 6 mm diameter was made in the center of each inoculated plate; the plug was removed, and filled with 100 μl of the microcapsules suspension. The limonene oil was diluted in dimethyl sulfoxide (DMSO) (7:3 ratio), and the vanillin dissolved in corn oil (0.03 g vanillin in 1 g of oil). The plates were incubated at 37° C. for 24 h. After this time period, the diameter of the inhibition zone was measured and incubation maintained for more 4 days in order to evaluate further changes in the inhibition zone. The clear zone formed, after incubation, around each hole (inhibition halo), indicates antimicrobial activity and its diameter is a measure of the inhibitory effect. All of the tests were done in duplicates.
(In agar diffusion tests the substance spreads into inoculated agar from a disc or well.)

The test system of test [2] is Staphylococcus aureus (ATCC 19213). Put plainly: Agar diffusion method (inhibition zone). The class given is cell-based. More on the design: key to Inhibition zone after 4 days of incubation (symbol): — (*): After 4 days of incubation, the bacteria grown up in the inhibition zone initially formed. Particulars: S. aureus; for Average diameters of inhibition zones, after 24 hours of incubation: 100 μl in 6 mm well, 37° C.; for Inhibition zone after 4 days of incubation (symbol): free oils. Here is the method:
as §1

Consider `C=C(C)[C@H]1CC=C(C)CC1` [Limonene in DMSO, Limonene], for which, in test [1], the “Average diameters of inhibition zones, after 24 hours of incubation” value (“Average diameters of inhibition zones” for short) is 3.30 ± 0.31 cm and the “Inhibition zone after 4 days of incubation (symbol)” value (shortened to “Inhibition zone after 4 days”) is reported as “— (*)”. In test [2], the “Average diameters of inhibition zones” value was 3.30 ± 0.18 cm and the “Inhibition zone after 4 days” value is on record as “— (*)”.
Take `COc1cc(C=O)ccc1O` [Vanillin in corn oil, Vanillin]: in test [1], the “Average diameters of inhibition zones” value is 0.95 ± 0.32 cm and the “Inhibition zone after 4 days” value was “— (*)”. Also, in test [2], the “Average diameters of inhibition zones” value is listed as 1.00 ± 0.20 cm and the “Inhibition zone after 4 days” value is listed as “— (*)”.
